# Measured values from patent publication US20250051338A1, “TYK2 DEGRADERS AND USES THEREOF” (Kymera Therapeutics, Inc., priority 2021, published 2025).
# Experiments:
# Format in all cases: cell-based
# [1] = target: T1, TYK2 (Homo sapiens, UniProt P29597); experiment: TYK2 degradation MSD assay in human PBMC cells; parameters: endogenous in cells; host or cells: human PBMC; conditions: 4 to 24 hours incubation, read-out: TYK2 MSD DC50 rating in human PBMC
# Outline: (§1)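 MSD electrochemiluminescence readout of residual TYK2 in RIPA lysates after 4–24 h compound exposure at 37° C. Dosing: 9 concentrations, 1:3 steps, top 1 to 10 μM. DC50 fitted by four-parameter inhibitor vs. response regression.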
# [2] = target: T1, TYK2; experiment: TYK2 degradation MSD assay in EBV-B cells; parameters: endogenous in cells; host or cells: EBV-B cells; conditions: 4 to 24 hours incubation, read-out: TYK2 MSD DC50 rating in EBV-B
# Outline: as §1
# [3] = target: T1, TYK2; experiment: TYK2 degradation MSD assay in OCI-LY10 cells; parameters: endogenous in cells; host or cells: EBV-B cells; conditions: 4 to 24 hours incubation, read-out: TYK2 MSD DC50 rating in OCI-LY10
# Outline: as §1
# T1 sequence (P29597 whole entry): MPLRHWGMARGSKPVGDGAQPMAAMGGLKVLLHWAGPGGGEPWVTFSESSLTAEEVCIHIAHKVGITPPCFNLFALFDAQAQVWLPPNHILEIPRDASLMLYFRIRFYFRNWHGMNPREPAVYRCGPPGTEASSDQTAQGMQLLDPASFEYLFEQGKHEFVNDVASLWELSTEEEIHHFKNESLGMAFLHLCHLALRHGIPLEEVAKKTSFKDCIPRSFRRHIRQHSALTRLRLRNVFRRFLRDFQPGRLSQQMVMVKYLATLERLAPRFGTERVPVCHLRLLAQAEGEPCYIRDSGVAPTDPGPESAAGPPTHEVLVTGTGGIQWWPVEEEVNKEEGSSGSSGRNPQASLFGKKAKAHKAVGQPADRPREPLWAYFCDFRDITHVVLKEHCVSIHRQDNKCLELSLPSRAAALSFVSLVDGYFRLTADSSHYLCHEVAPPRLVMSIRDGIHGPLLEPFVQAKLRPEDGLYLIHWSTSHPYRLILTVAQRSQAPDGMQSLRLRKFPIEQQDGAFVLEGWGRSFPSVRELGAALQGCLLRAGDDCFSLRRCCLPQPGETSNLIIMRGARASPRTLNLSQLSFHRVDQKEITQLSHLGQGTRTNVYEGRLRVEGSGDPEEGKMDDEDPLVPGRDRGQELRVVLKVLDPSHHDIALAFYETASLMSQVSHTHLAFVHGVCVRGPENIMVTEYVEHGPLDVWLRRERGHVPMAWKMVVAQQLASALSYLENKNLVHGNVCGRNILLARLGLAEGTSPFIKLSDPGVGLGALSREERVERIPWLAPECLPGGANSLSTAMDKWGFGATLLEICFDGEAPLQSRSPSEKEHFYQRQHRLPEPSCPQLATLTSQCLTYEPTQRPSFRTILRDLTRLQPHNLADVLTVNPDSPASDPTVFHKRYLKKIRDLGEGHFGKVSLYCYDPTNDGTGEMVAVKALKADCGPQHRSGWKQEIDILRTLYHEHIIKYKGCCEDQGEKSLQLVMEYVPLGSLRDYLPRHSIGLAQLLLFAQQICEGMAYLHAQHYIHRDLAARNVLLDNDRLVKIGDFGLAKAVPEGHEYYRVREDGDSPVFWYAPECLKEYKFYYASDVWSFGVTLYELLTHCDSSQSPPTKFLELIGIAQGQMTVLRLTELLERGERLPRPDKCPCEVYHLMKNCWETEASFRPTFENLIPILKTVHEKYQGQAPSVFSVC
DC50 [1],DC50 [2],DC50 [3],SMILES
> 0.1 µM,> 0.1 µM,> 0.1 µM,Cn1c(=O)n(C2CCC(=O)NC2=O)c2ccc(C3CCN(CCCNc4cc(Nc5cccn(-c6ccccn6)c5=O)nn5c(C(=O)N[C@@H]6C[C@@H]6F)cnc45)CC3)cc21 (stereo partly drawn) [Example K366]
> 0.1 µM,< 0.001 µM,< 0.001 µM,CNc1cc(Nc2cccn(-c3ccc(C(=O)NCc4ccc(N5CCC(N6CCC(c7ccc8c(c7)n(C)c(=O)n8C7CCC(=O)NC7=O)C6)CC5)cc4)cn3)c2=O)nn2c(C(=O)N[C@@H]3C[C@@H]3F)cnc12 (stereo partly drawn) [Example K370]
> 0.1 µM,< 0.001 µM,> 0.1 µM,CNc1cc(Nc2cccn(-c3ccc(C(=O)N4CCN(CCCOCCc5ccc(-c6ccc7c(c6)n(C)c(=O)n7C6CCC(=O)NC6=O)cc5)CC4)cn3)c2=O)nn2c(C(=O)N[C@@H]3C[C@@H]3F)cnc12 (stereo partly drawn) [Example K379]
< 0.001 µM,< 0.001 µM,< 0.001 µM,CNc1cc(Nc2cccn(-c3ccc(C(=O)N4CCN([C@H]5CC[C@H](c6ccc(-c7ccc8c(c7)n(C)c(=O)n8C7CCC(=O)NC7=O)cc6)CC5)CC4)cn3)c2=O)nn2c(C(=O)N[C@@H]3C[C@@H]3F)cnc12 (stereo partly drawn) [Example K380]
> 0.1 µM,< 0.001 µM,< 0.001 µM,CNc1cc(Nc2cccn(-c3ccc(C(=O)N4CCC(N5CC(N6CCN(c7ccc8c(c7)n(C)c(=O)n8C7CCC(=O)NC7=O)CC6)C5)CC4)cn3)c2=O)nn2c(C(=O)N[C@@H]3C[C@@H]3F)cnc12 (stereo partly drawn) [Example K381]
< 0.001 µM,< 0.001 µM,> 0.1 µM,CNc1cc(Nc2cccn(-c3ccc(C(=O)N4CC5(CCN(c6ccc(-c7ccc8c(c7)n(C)c(=O)n8C7CCC(=O)NC7=O)cn6)CC5)C4)cn3)c2=O)nn2c(C(=O)N[C@@H]3C[C@@H]3F)cnc12 (stereo partly drawn) [Example K383]
< 0.001 µM,< 0.001 µM,> 0.1 µM,CNc1cc(Nc2cccn(-c3ccc(C(=O)N4CCC(c5ncc(-c6ccc7c(c6)n(C)c(=O)n7C6CCC(=O)NC6=O)cn5)CC4)cn3)c2=O)nn2c(C(=O)N[C@@H]3C[C@@H]3F)cnc12 (stereo partly drawn) [Example K385]
< 0.001 µM,> 0.1 µM,> 0.1 µM,CNc1cc(Nc2cccn(-c3ccc(C(=O)N4CCN(CCc5ccc6c(c5)n(C)c(=O)n6C5CCC(=O)NC5=O)CC4)cn3)c2=O)nn2c(C(=O)N[C@@H]3C[C@@H]3F)cnc12 (stereo partly drawn) [Example K386]
< 0.001 µM,> 0.1 µM,> 0.1 µM,CNc1cc(Nc2cccn(-c3ccc(C(=O)N(C)Cc4ccc(-c5ccc6c(c5)n(C)c(=O)n6C5CCC(=O)NC5=O)cn4)cn3)c2=O)nn2c(C(=O)N[C@@H]3C[C@@H]3F)cnc12 (stereo partly drawn) [Example K387]
> 0.1 µM,> 0.1 µM,> 0.1 µM,CNc1cc(Nc2cccn(-c3ccc(C(=O)N4CC5(CCN(c6ccc7c(c6)n(C)c(=O)n7C6CCC(=O)NC6=O)CC5)C4)cn3)c2=O)nn2c(C(=O)N[C@@H]3C[C@@H]3F)cnc12 (stereo partly drawn) [Example K388]
< 0.001 µM,< 0.001 µM,> 0.1 µM,CNc1cc(Nc2cccn(-c3ccc(C(=O)N4CCC5(CC4)CC(Cc4ccc6c(c4)n(C)c(=O)n6C4CCC(=O)NC4=O)C5)cn3)c2=O)nn2c(C(=O)N[C@@H]3C[C@@H]3F)cnc12 (stereo partly drawn) [Example K391]
> 0.1 µM,< 0.001 µM,> 0.1 µM,CNc1cc(Nc2cccn(C3CCN(C(=O)N(C)CC4CCN(c5ccc6c(c5)n(C)c(=O)n6C5CCC(=O)NC5=O)CC4)CC3)c2=O)nn2c(C(=O)N[C@@H]3C[C@@H]3F)cnc12 (stereo partly drawn) [Example K398]

# Second part, the compound before the results:
SMILES,DC50 [1],DC50 [2],DC50 [3]
Cn1c(=O)n(C2CCC(=O)NC2=O)c2ccc(CN3CCC(Nc4cc(Nc5cccn(-c6ccccn6)c5=O)nn5c(C(=O)N[C@@H]6C[C@@H]6F)cnc45)CC3)cc21 (stereo partly drawn) [Example K367],> 0.1 µM,> 0.1 µM,> 0.1 µM
CNc1cc(Nc2cccn(-c3ccc(C(=O)N(C)CCCOCCCc4cccc5c4n(C)c(=O)n5C4CCC(=O)NC4=O)cn3)c2=O)nn2c(C(=O)N[C@@H]3C[C@@H]3F)cnc12 (stereo partly drawn) [Example K369],0.001 to 0.01 µM,> 0.1 µM,> 0.1 µM
CNc1cc(Nc2cccn(-c3ccc(C(=O)N4CCCC5(C4)CN(c4ncc(C#Cc6ccc7c(c6)n(C)c(=O)n7C6CCC(=N)NC6=O)cn4)C5)cn3)c2=O)nn2c(C(=O)N[C@@H]3C[C@@H]3F)cnc12 (stereo partly drawn) [Example K371],> 0.1 µM,0.001 to 0.01 µM,> 0.1 µM
CNc1cc(Nc2cccn(-c3ccc(C(=O)N4CC5(C4)CN(c4ccc(-c6ccc7c(c6)n(C)c(=O)n7C6CCC(=O)NC6=O)cc4)C5)cn3)c2=O)nn2c(C(=O)N[C@@H]3C[C@@H]3F)cnc12 (stereo partly drawn) [Example K372],> 0.1 µM,< 0.001 µM,> 0.1 µM
CNc1cc(Nc2cccn(-c3ccc(C(=O)N4CCN(CC5CC(c6ccc(-c7ccc8c(c7)n(C)c(=O)n8C7CCC(=O)NC7=O)cc6)C5)CC4)cn3)c2=O)nn2c(C(=O)N[C@@H]3C[C@@H]3F)cnc12 (stereo partly drawn) [Example K373],> 0.1 µM,< 0.001 µM,> 0.1 µM
CNc1cc(Nc2cccn(-c3ccc(C(=O)N4CCN(CC5CCN(c6ccc(-c7ccc8c(c7)n(C)c(=O)n8C7CCC(=O)NC7=O)cc6)CC5)CC4)cn3)c2=O)nn2c(C(=O)N[C@@H]3C[C@@H]3F)cnc12 (stereo partly drawn) [Example K374],> 0.1 µM,< 0.001 µM,> 0.1 µM
CNc1cc(Nc2cccn(-c3ccc(C(=O)N4CCC(CN5CCC56CN(c5ncc(C#Cc7ccc8c(c7)n(C)c(=O)n8C7CCC(=O)NC7=O)cn5)C6)CC4)cn3)c2=O)nn2c(C(=O)N[C@@H]3C[C@@H]3F)cnc12 (stereo partly drawn) [Example K375],> 0.1 µM,0.001 to 0.01 µM,> 0.1 µM
CNc1cc(Nc2cccn(-c3ccc(C(=O)N4CCC45CN(c4ncc(C#Cc6ccc7c(c6)n(C)c(=O)n7C6CCC(=O)NC6=O)cn4)C5)cn3)c2=O)nn2c(C(=O)N[C@@H]3C[C@@H]3F)cnc12 (stereo partly drawn) [Example K376],> 0.1 µM,0.01 to 0.1 µM,> 0.1 µM
CNc1cc(Nc2cccn(-c3ccc(C(=O)N4CCN([C@H]5CC[C@@H](c6ccc(-c7ccc8c(c7)n(C)c(=O)n8C7CCC(=O)NC7=O)cc6)CC5)CC4)cn3)c2=O)nn2c(C(=O)N[C@@H]3C[C@@H]3F)cnc12 (stereo partly drawn) [Example K377],> 0.1 µM,< 0.001 µM,> 0.1 µM
CNc1cc(Nc2cccn(-c3ccc(C(=O)N4CCN(c5ccc(-c6ccc7c(c6)n(C)c(=O)n7C6CCC(=O)NC6=O)cn5)C(=O)C4)cn3)c2=O)nn2c(C(=O)N[C@@H]3C[C@@H]3F)cnc12 (stereo partly drawn) [Example K378],> 0.1 µM,< 0.001 µM,> 0.1 µM
CNc1cc(Nc2cccn(-c3ccc(C(=O)N4CC5(C4)CN(c4ncc(C#Cc6ccc7c(c6)n(C)c(=O)n7C6CCC(=O)NC6=O)cn4)C5)cn3)c2=O)nn2c(C(=O)NC3CC3F)cnc12 (stereo not drawn) [Example K382],> 0.1 µM,< 0.001 µM,> 0.1 µM
CNc1cc(Nc2cccn(-c3ccc(C(=O)NC4CCC(C(=O)N5CCC6(CN(CC#Cc7ccc8c(c7)n(C)c(=O)n8C7CCC(=O)NC7=O)C6)C5)CC4)cn3)c2=O)nn2c(C(=O)N[C@@H]3C[C@@H]3F)cnc12 (stereo partly drawn) [Example K384],> 0.1 µM,> 0.1 µM,> 0.1 µM
CNc1cc(Nc2cccn(-c3ccc(C(=O)N4CC5(CCN(c6cccc7c6n(C)c(=O)n7C6CCC(=O)NC6=O)CC5)C4)cn3)c2=O)nn2c(C(=O)N[C@@H]3C[C@@H]3F)cnc12 (stereo partly drawn) [Example K389],< 0.001 µM,< 0.001 µM,< 0.001 µM
CNc1cc(Nc2cccn(-c3ccc(C(=O)N4CCC(CN(C)c5ccc6c(c5)n(C)c(=O)n6C5CCC(=O)NC5=O)CC4)cn3)c2=O)nn2c(C(=O)N[C@@H]3C[C@@H]3F)cnc12 (stereo partly drawn) [Example K390],< 0.001 µM,> 0.1 µM,> 0.1 µM
CNc1cc(Nc2cccn(-c3ccc(C(=O)N4CCC5(CC4)CCN(c4ccc6c(c4)n(C)c(=O)n6C4CCC(=O)NC4=O)C5)cn3)c2=O)nn2c(C(=O)N[C@@H]3C[C@@H]3F)cnc12 (stereo partly drawn) [Example K392],< 0.001 µM,> 0.1 µM,> 0.1 µM
CNc1cc(Nc2cccn(-c3ccc(C(=O)N4CCC(OC5CC(c6ccc7c(c6)n(C)c(=O)n7C6CCC(=O)NC6=O)C5)CC4)cn3)c2=O)nn2c(C(=O)N[C@@H]3C[C@@H]3F)cnc12 (stereo partly drawn) [Example K393],< 0.001 µM,> 0.1 µM,> 0.1 µM
CNc1cc(Nc2cccn(-c3ccc(C(=O)N4CCC(OCC#Cc5ccc6c(c5)n(C)c(=O)n6C5CCC(=O)NC5=O)CC4)cn3)c2=O)nn2c(C(=O)N[C@@H]3C[C@@H]3F)cnc12 (stereo partly drawn) [Example K394],> 0.1 µM,0.001 to 0.01 µM,> 0.1 µM
CNc1cc(Nc2cccn(-c3ccc(C(=O)N4CCC(n5cc(-c6ccc7c(c6)n(C)c(=O)n7C6CCC(=O)NC6=O)cn5)CC4)cn3)c2=O)nn2c(C(=O)N[C@@H]3C[C@@H]3F)cnc12 (stereo partly drawn) [Example K395],> 0.1 µM,< 0.001 µM,> 0.1 µM
CNc1cc(Nc2cccn(C3CCN(C(=O)N(C)C4CCN(Cc5cccc6c5n(C)c(=O)n6C5CCC(=O)NC5=O)CC4)CC3)c2=O)nn2c(C(=O)N[C@@H]3C[C@@H]3F)cnc12 (stereo partly drawn) [Example K396],> 0.1 µM,0.001 to 0.01 µM,> 0.1 µM
CNc1cc(Nc2cccn(C3CCN(C(=O)N(C)CC4CCN(Cc5cccc6c5n(C)c(=O)n6C5CCC(=O)NC5=O)CC4)CC3)c2=O)nn2c(C(=O)N[C@@H]3C[C@@H]3F)cnc12 (stereo partly drawn) [Example K397],> 0.1 µM,0.001 to 0.01 µM,> 0.1 µM
CNc1cc(Nc2cccn(C3CCN(C(=O)NCCCCCCCCCCc4ccc5c(c4)n(C)c(=O)n5C4CCC(=O)NC4=O)CC3)c2=O)nn2c(C(=O)N[C@@H]3C[C@@H]3F)cnc12 (stereo partly drawn) [Example K399],> 0.1 µM,0.001 to 0.01 µM,> 0.1 µM
